As usually defined, the IC50 is the concentration that gives 50% inhibition. A lower IC50 goes with higher potency.

Sequence of Shp1 (P29350 whole entry): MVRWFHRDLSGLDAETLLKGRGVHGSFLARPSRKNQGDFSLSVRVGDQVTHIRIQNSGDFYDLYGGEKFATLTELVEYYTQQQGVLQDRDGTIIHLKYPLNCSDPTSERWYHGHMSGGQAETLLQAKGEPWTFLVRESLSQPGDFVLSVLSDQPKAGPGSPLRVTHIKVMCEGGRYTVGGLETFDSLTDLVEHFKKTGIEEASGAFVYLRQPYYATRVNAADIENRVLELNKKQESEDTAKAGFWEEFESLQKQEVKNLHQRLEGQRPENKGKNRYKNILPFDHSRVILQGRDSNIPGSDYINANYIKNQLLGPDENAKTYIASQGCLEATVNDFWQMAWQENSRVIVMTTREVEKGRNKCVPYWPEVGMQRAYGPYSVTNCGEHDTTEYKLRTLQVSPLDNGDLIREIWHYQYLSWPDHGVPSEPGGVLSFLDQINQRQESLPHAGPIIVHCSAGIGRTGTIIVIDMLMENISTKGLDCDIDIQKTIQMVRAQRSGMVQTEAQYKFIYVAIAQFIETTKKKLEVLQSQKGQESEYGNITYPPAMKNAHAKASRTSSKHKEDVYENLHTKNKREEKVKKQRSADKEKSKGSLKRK

The first assay addresses Shp1 (Homo sapiens (Human), UniProt P29350).
Assay: not given
Particulars: background statement, non-selective; cited from earlier work.
Turning to `CCOc1ccc(NC(=O)CN2C(=O)/C(=C3\SC(=S)C(CCS(=O)(=O)O)C3=O)c3ccccc32)cc1` (stereo not shown) [CDL 4340-0580], the “inhibition of Shp1” value is “also inhibit tumor suppressor Shp1”.

The next assay concerns the target T1, Shp2 (Homo sapiens (Human), UniProt Q06124).
Assay: not given
Particulars: background statement; cited from earlier work.
On to `CCOc1ccc(NC(=O)CN2C(=O)/C(=C3\SC(=S)C(CCS(=O)(=O)O)C3=O)c3ccccc32)cc1` (stereo not shown) [CDL 4340-0580], for which the “inhibition of Shp2” value is “ability to inhibit Shp2”.

Another assay addresses T1, Shp2. As to the kind of experiment: in vitro phosphotyrosine phosphatase activity (DiFMUP) assay. Format: biochemical. To be noted: mean ± spread over n tests. How it is done: All reagents were purchased from commercial suppliers and used without further purification. Melting points were determined using a Barnstead international melting point apparatus and remain uncorrected. ^1H NMR spectra were recorded on a Varian Mercury 400 MHz spectrometer with CDCl3 or DMSO-d6 as the solvent. ^13C NMR spectra are recorded at 100 MHz. All coupling constants are measured in Hertz (Hz) and the chemical shifts (δH and δC) are quoted in parts per million (ppm) relative to TMS (δ0), which was used as the internal standard. High resolution mass spectroscopy was carried out on an Agilent 6210 LC/MS (ESI-TOF). Microwave reactions were performed in CEM 908005 model and Biotage initiator 8 machines. HPLC analysis was performed using a JASCO HPLC system equipped with a PU-2089 Plus quaternary gradient pump and a UV-2075 Plus UV-VIS detector, using an Alitech Kromasil C-18 column (150×4.6 mm, 5 μm). Thin layer chromatography was performed using silica gel 60 F254 plates (Fisher), with observation under UV when necessary. Anhydrous solvents (acetonitrile, dimethyl formamide, ethanol, isopropanol, methanol and tetrahydrofuran) were used as purchased from Aldrich. HPLC grade solvents (methanol, acetonitrile and water) were purchased from Burdick and Jackson for HPLC and mass analysis.
In turn, `O=C(O)CCC(=O)N1CCc2cc(S(=O)(=O)N3CCN(c4cccc(C(F)(F)F)c4)CC3)ccc21` [XW2-031B, 4-oxo-4-(5-(4-(3-(trifluoromethyl)phenyl)piperazin-1-ylsulfonyl)indolin-1-yl)butanoic acid] displayed an IC50 of 11.3 ± 3.1 µM.

The compound `O=C(O)/C=C\C(=O)N1CCc2cc(S(=O)(=O)N3CCN(c4cccc(Cl)c4)CC3)ccc21` [JHE-01-129A, (Z)-4-(5-(4-(3-Chlorophenyl)piperazin-1-ylsulfonyl)indolin-1-yl)-4-oxobut-2-enoic acid] displayed a half-maximal inhibitory concentration (IC50) of 2.8 ± 0.7 µM.

As for “4-(6-(4-(3-Chlorophenyl)piperazin-1-ylsulfonyl)-3,4-dihydroquinolin-1(2H)-yl)-4-oxobutanoic acid [JHE-02-023]”, half-maximal inhibition (IC50) required 37.3 ± 5.3 µM.

The compound `CCOC(=O)CNC(=O)N1CCc2cc(S(=O)(=O)N3CCN(c4cccc(Cl)c4)CC3)ccc21` [JHE-01-134A, ethyl 2-(5-(4-(3-Chlorophenyl)piperazin-1-ylsulfonyl)indoline-1-carboxamido)acetate] registered an IC50 of 60.3 µM. Against the preceding compound, the IC50 is about 1.6-fold higher.

`CCOC(=O)C(CC(C)C)NC(=O)N1CCc2cc(S(=O)(=O)N3CCN(c4cccc(Cl)c4)CC3)ccc21` (stereo not shown) [JHE-02-012, Ethyl 2-(5-(4-(3-chlorophenyl)piperazin-1-ylsulfonyl)indoline-1-carboxamido)-4-methylpentanoate] registered an IC50 of 6 ± 2.8 µM.

`O=C(O)CNC(=O)N1CCc2cc(S(=O)(=O)N3CCN(c4cccc(Cl)c4)CC3)ccc21` [JHE-01-137, 2-(5-(4-(3-Chlorophenyl)piperazin-1-ylsulfonyl)indoline-1-carboxamido)acetic acid] registered an IC50 of 4.6 ± 0.3 µM.

With `O=C(c1cc(Cl)cc(Cl)c1)N1CCc2cc(S(=O)(=O)N3CCN(c4cccc(Cl)c4)CC3)ccc21` [JF025, (5-(4-(3-Chlorophenyl)piperazin-1-ylsulfonyl)indolin-1-yl)(3,5-dichlorophenyl)methanone], the IC50 is 8.2 ± 2.6 µM.

`O=C(c1ccccc1)N1CCc2cc(S(=O)(=O)N3CCN(c4cccc(Cl)c4)CC3)ccc21` [JF022, (5-(4-(3-Chlorophenyl)piperazin-1-ylsulfonyl)indolin-1-yl)(phenyl)methanone] showed an IC50 of 8.4 ± 2.3 µM.

The compound `O=C(O)C(O)CC(=O)N1CCc2cc(S(=O)(=O)N3CCN(c4cccc(Cl)c4)CC3)ccc21` (stereo not shown) [JHE-02-067] came in with an IC50 of 1.3 ± 0.5 µM. This IC50 lies about 6.5-fold lower than the previous one.

Turning to `O=C(C1CCCC1)N1CCc2cc(S(=O)(=O)N3CCN(c4cccc(Cl)c4)CC3)ccc21` [JF026, (5-(4-(3-Chlorophenyl)piperazin-1-ylsulfonyl)indolin-1-yl)(cyclopentyl)methanone], the IC50 was 6.9 ± 2.2 µM.

As for `COc1ccc(N2CCN(S(=O)(=O)c3ccc4c(c3)CCN4C(=O)CCC(=O)O)CC2)cc1` [XW2-038E, 4-(5-(4-(4-Methoxyphenyl)piperazin-1-ylsulfonyl)indolin-1-yl)-4-oxobutanoic acid], the IC50 came out at 9 ± 5.9 µM.

Regarding `O=C(O)C1CC=CCC1C(=O)N1CCc2cc(S(=O)(=O)N3CCN(c4cccc(Cl)c4)CC3)ccc21` (stereo not shown) [JHE-02-007, 6-(5-(4-(3-Chlorophenyl)piperazin-1-ylsulfonyl)indoline-1-carbonyl)cyclohex-3-enecarboxylic acid], the IC50 came to 20.3 ± 4.3 µM. Compared with the last compound, the IC50 is about 2.3-fold higher.

On to `CC(C)CC(NC(=O)N1CCc2cc(S(=O)(=O)N3CCN(c4cccc(Cl)c4)CC3)ccc21)C(=O)O` (stereo not shown) [JHE-02-019A, 2-(5-(4-(3-Chlorophenyl)piperazin-1-ylsulfonyl)indoline-1-carboxamido)-4-methylpentanoic acid], for which the IC50 was found to be 4.5 ± 3.5 µM.

Turning to `CC1Cc2cc(S(=O)(=O)N3CCN(c4cccc(Cl)c4)CC3)ccc2N1C(=O)CCC(=O)O` (stereo not shown) [JHE-02-119, 4-(5-(4-(3-Chlorophenyl)piperazin-1-ylsulfonyl)-2-methylindolin-1-yl)-4-oxobutanoic acid], the IC50 was 2.5 ± 0.5 µM.

In the case of `O=C(O)CC[C@H](NC(=O)N1CCc2cc(S(=O)(=O)N3CCN(c4cccc(Cl)c4)CC3)ccc21)C(=O)O` [JHE-02-052, (S)-2-(5-(4-(3-Chlorophenyl)piperazin-1-ylsulfonyl)indoline-1-carboxamido)pentanedioic acid], half-maximal inhibition (IC50) was put at 37.6 ± 13.8 µM.

On to `O=C(O)CCC(=O)N1CCc2cc(S(=O)(=O)N3CCN(c4ccccc4F)CC3)ccc21` [XW2-038D, 4-(5-(4-(2-Fluorophenyl)piperazin-1-ylsulfonyl)indolin-1-yl)-4-oxobutanoic acid], for which the IC50 was determined as 34.6 ± 12.6 µM.

`O=C(O)c1cccc(NC(=O)N2CCc3cc(S(=O)(=O)N4CCN(c5cccc(Cl)c5)CC4)ccc32)c1` [JHE-02-020B, 3-(5-(4-(3-Chlorophenyl)piperazin-1-ylsulfonyl)indoline-1-carboxamido)benzoic acid]: the IC50 was 3 ± 0.8 µM.

Compound `O=C(O)CCC(=O)N1CCc2cc(S(=O)(=O)N3CCN(c4ccc(F)cc4)CC3)ccc21` [XW2-011B, 4-(5-(4-(4-Fluorophenyl)piperazin-1-ylsulfonyl)indolin-1-yl)-4-oxobutanoic acid] came in with an IC50 of 31.9 ± 10 µM.

`Cc1ccc(N2CCN(S(=O)(=O)c3ccc4c(c3)CCN4C(=O)CCC(=O)O)CC2)cc1Cl` [XW3-006, 4-(5-(4-(3-Chloro-4-methylphenyl)piperazin-1-ylsulfonyl)indolin-1-yl)-4-oxobutanoic acid] returned a half-maximal inhibitory concentration (IC50) of 16.6 ± 3.6 µM.

For the compound `O=C(O)CCC(=O)N1CCc2cc(S(=O)(=O)N3CCN(c4cccc(F)c4)CC3)ccc21` [XW2-124A, 4-(5-(4-(3-Fluorophenyl)piperazin-1-ylsulfonyl)indolin-1-yl)-4-oxobutanoic acid], half-maximal inhibition (IC50) required 13.2 ± 3.6 µM.

`O=C(Nc1ccccc1F)N1CCc2cc(S(=O)(=O)N3CCN(c4cccc(Cl)c4)CC3)ccc21` [JF035, 5-(4-(3-Chlorophenyl)piperazin-1-ylsulfonyl)-N-(2-fluorophenyl)indoline-1-carboxamide] showed an IC50 of 12.2 ± 2 µM.

In turn, `O=C(O)C(O)CC(=O)N1CCc2cc(S(=O)(=O)N3CCN(c4cccc(Cl)c4)CC3)ccc21` (stereo not shown) [JHE-02-001, 4-(5-(4-(3-Chlorophenyl)piperazin-1-ylsulfonyl)indolin-1-yl)-2-hydroxy-4-oxobutanoic acid] returned an IC50 of 1.1 ± 0.3 µM.

Take `O=C(O)CCC(=O)N1CCc2cc(S(=O)(=O)N3CCN(c4cc(C(F)(F)F)cc(C(F)(F)F)c4)CC3)ccc21` [XW2-119, 4-(5-(4-(3,5-Bis(trifluoromethyl)phenyl)piperazin-1-ylsulfonyl)indolin-1-yl)-4-oxobutanoic acid]: the midpoint of inhibition, the IC50, lay at 9.1 ± 1.6 µM.

Compound `CC(C)c1ccc(NC(=O)N2CCc3cc(S(=O)(=O)N4CCN(c5cccc(Cl)c5)CC4)ccc32)cc1` [JHE-02-068B, 5-(4-(3-Chlorophenyl)piperazin-1-ylsulfonyl)-N-(4-isopropylphenyl)indoline-1-carboxamide] returned an IC50 of 4.1 ± 1 µM. Compared with the last compound, the IC50 is about 2.2-fold lower.

In turn, `O=C(Nc1cccc(F)c1)N1CCc2cc(S(=O)(=O)N3CCN(c4cccc(Cl)c4)CC3)ccc21` [JF039, 5-(4-(3-Chlorophenyl)piperazin-1-ylsulfonyl)-N-(3-fluorophenyl)indoline-1-carboxamide] showed an IC50 of 8.1 ± 1.7 µM.

Take `O=C(O)CCC(=O)N1CCc2cc(S(=O)(=O)N3CCN(c4ccc(Cl)c(Cl)c4)CC3)ccc21` [XW2-036, 4-(5-(4-(3,4-Dichlorophenyl)piperazin-1-ylsulfonyl)indolin-1-yl)-4-oxobutanoic acid]: the IC50 stood at 4.6 ± 2.4 µM.

Consider `CCOC(=O)C(NC(=O)N1CCc2cc(S(=O)(=O)N3CCN(c4cccc(Cl)c4)CC3)ccc21)C(C)C` (stereo not shown) [JHE-02-010C, Ethyl 2-(5-(4-(3-chlorophenyl)piperazin-1-ylsulfonyl)indoline-1-carboxamido)-3-methylbutanoate], for which the midpoint of inhibition, the IC50, lay at 7.7 ± 2.4 µM.

Compound `O=C(O)c1ccccc1NC(=O)N1CCc2cc(S(=O)(=O)N3CCN(c4cccc(Cl)c4)CC3)ccc21` [JHE-02-020A, 2-(5-(4-(3-Chlorophenyl)piperazin-1-ylsulfonyl)indoline-1-carboxamido)benzoic acid] showed a half-inhibitory concentration (IC50) of 8.3 ± 5.6 µM.

`CC1Cc2cc(S(=O)(=O)N3CCN(c4cccc(Cl)c4)CC3)ccc2N1C(=O)C(F)(F)F` (stereo not shown) [JHE-02-117, 1-(5-(4-(3-chlorophenyl)piperazin-1-ylsulfonyl)-2-methylindolin-1-yl)-2,2,2-trifluoroethanone] returned a concentration for half-maximal inhibition (IC50) of 47 ± 17.7 µM. Against the preceding compound, the IC50 is about 5.7-fold higher.

Compound `O=C(Nc1ccc(Cl)cc1)N1CCc2cc(S(=O)(=O)N3CCN(c4cccc(Cl)c4)CC3)ccc21` [JHE-02-065A, N-(4-Chlorophenyl)-5-(4-(3-chlorophenyl)piperazin-1-ylsulfonyl)indoline-1-carboxamide] came in with an IC50 of 19.1 ± 5.1 µM.

For `O=C(Nc1ccc(Cl)c(Cl)c1)N1CCc2cc(S(=O)(=O)N3CCN(c4cccc(Cl)c4)CC3)ccc21` [JHE-02-068A, 5-(4-(3-Chlorophenyl)piperazin-1-ylsulfonyl)-N-(3,4-dichlorophenyl)indoline-1-carboxamide], the IC50 amounted to 5.7 ± 2.5 µM.

Regarding `COc1cccc(NC(=O)N2CCc3cc(S(=O)(=O)N4CCN(c5cccc(Cl)c5)CC4)ccc32)c1` [JHE-02-032B, 5-(4-(3-Chlorophenyl)piperazin-1-ylsulfonyl)-N-(3-methoxyphenyl)indoline-1-carboxamide], the IC50 worked out at 9.9 ± 3.5 µM.
